# Data as given in patent US10835533B2, “1 -((3S,4R)-4-(3-fluorophenyl)-1-(2-methoxyethyl)pyrrolidin-3-yl)-3-(4-methyl-3-(2-methylpyrimidin-5-yl)-1-phenyl-1H-pyrazol-5-yl)urea as a TrkA kinase inhibitor” (Array BioPharma Inc., priority 2014, dated 2020).
# Assays:
# [1] = biological target: T1, CHO-K1 cells transfected with human wild type TrkA (Homo sapiens, UniProt P04629); assay: TrkA Cell Assay, phospho-TrkA ELISA (Example B); type: cell-based; conditions: assay of Example B, 30 ng/mL human NGF, read-out: averaged IC50 value, phospho-TrkA
# T1 construct: expressed in transfected cells; host or cells: CHO-K1
# Description: CHO-K1 cells transfected with human wild type TrkA were plated in a 96-well flat-bottom plate at 3×10^5 cells/well in complete DMEM medium containing 10% FBS and allowed to attach for 24 hours at 37° C., 5% CO2. Medium was then replaced with complete serum free assay medium and the cells were serum starved for 1 hour at 37° C., 5% CO2. Cells were treated with Compound 1, 2 or 3 using 1:3 serial dilutions with final concentrations ranging from 1 μM to […]. The compound was incubated on cells for 1 hour at 37° C., 5% CO2. Cells were then stimulated with a final concentration of 30 ng/mL human NGF for 7 minutes at 37° C., 5% CO2. Medium was removed and cells were lysed with lysis buffer containing phosphatase and protease inhibitors. Phospho-TrkA was measured by ELISA (R&D Catalog No. DYC2578). The ELISA captured total TrkA and detected total phosphor-tyrosine. Optical density was measured for each well using a Versamax reader at a wave length of 450 nm. The IC50 values were determined by fitting a four parameter model to the percent of control data.
# [2] = biological target: T2, cloned hERG potassium channels expressed in human embryonic kidney cells (HEK293) (Homo sapiens, UniProt Q12809); assay: FASTPatch hERG Assay (Example F); type: cell-based; conditions: HEK293, QPatch HT, room temperature
# T2 construct: expressed in transfected cells; host or cells: HEK293
# Description: This assay was used to measure the effects of Compound 1, Compound 2, and Compound 3 on cloned hERG potassium channels expressed in human embryonic kidney cells (HEK293). The in vitro effects of Compound 1, Compound 2, and Compound 3 on the hERG (human ether-a-go-go-related gene) potassium channel current (a surrogate for IKr, the rapidly activating, delayed rectifier cardiac potassium current) expressed in mammalian cells were evaluated at room temperature using the QPatch HT® (Sophion Bioscience A/S, Denmark), an automatic parallel patch clamp system. The test article was evaluated at 0.3, 1, 3, 10, 30 and 100 μM with each concentration tested in three or more cells (n≥3). The duration of exposure to each test article concentration was 3 minutes. A positive control confirmed the sensitivity of the test system to hERG inhibition.
# [3] = Male Sprague Dawley rat pharmacokinetics, oral 10 mg/kg (Example D); type: in vivo; conditions: for Plasma:Brain ratio: Rat PO 10 mg/kg, plasma and brain collected 2 hours post dose; for Trough concentration / AUC / Cmax: Rat, oral dose 10 mg/kg, plasma; for AUC / Cmax: male, Sprague Dawley
# Description: Each of Compound 1, Compound 2, and Compound 3 was formulated by adding the compound (dry) to 20% Trappsol® (hydroxypropyl Beta cyclodextrin; CDT, Inc.) (aq) pH 5.0 and vortexing until a homogeneous suspension (PO) or solution (IV) was achieved.
# For oral dosing, rats received a single oral dose following an overnight fast. Blood was drawn from the lateral tail vein while the animal was anesthetized with 3% isoflurane balanced with O2 (0.2 mL/timepoint) into NaEDTA tubes (1.5% v/v) at the following time points: 5, 15, and 30 minutes, and 1, 2, 4, 8, 24 and 26 hours, and mixed thoroughly. Following the 24 hour blood collection, animals were redosed orally, and plasma and brain were collected 2 hours post dose for compound analysis. Brains were perefused with saline before removal, weighed and flash frozen in liquid nitrogen until analysis by LCMS/MS. Plasma was separated by centrifugation at 14,000 rpm for 10 minutes and the plasma samples were transferred to 96 well plate tubes with rubber caps and stored at −20±5° C. until analyzed.
# A single 12-point calibration curve was prepared by first serially diluting (3-fold) a 40-μg/mL stock solution of Compound 1, Compound 2, and Compound 3 in DMSO to provide standard solutions. Plasma (20 μL) was then added to the extraction plate, and 2.5 μL of each standard solution was added to the naïve plasma. A stock solution of an internal standard (10.0 μL of 2.5 μg/mL in acetonitrile) subsequently was added to each standard and sample solution. Proteinaceous material was precipitated from 20 μL of plasma with the addition of 317.5 μL of acetonitrile for a total volume of 350 μL. Samples were vortex-mixed for 5 minutes and spun in an Allegra X-12R centrifuge (Beckman Coulter, Fullerton, Calif.) for 15 minutes at approximately 1,500×g at 4° C. A 100-μL aliquot of each supernatant was transferred via a 550 μL Personal Pipettor (Apricot Designs, Monrovia, Calif.) to 96-well plates and diluted 1:1 with HPLC grade water. The resulting plates were sealed with plate mats and the amount of Compound 1n the plasma was analyzed by LC-MS/MS.
# The LC-MS/MS system was comprised of an HTC-PAL autosampler (Leap Technologies, Inc., Carrboro, N.C.), an HP1100 HPLC (Agilent Technologies Inc., Santa Clara, Calif.), and an API4000 triple quadrupole mass spectrometer (Applied Biosystems, Foster City, Calif.). Chromatographic retention of the analyte and internal standard was achieved using a Phenomenex® Synergi 4μ Hydro-RP 80A column (2.1×30 mm, 4 μm particle size; Phenomenex, Torrance, Calif.) in conjunction with gradient conditions using mobile phases A (10 mM ammonium acetate in aqueous 0.1% formic acid and 1% isopropyl alcohol) and B (10 mM ammonium acetate in 89.9% acetonitrile, 10% methanol, 0.1% formic acid). The total run time, including re-equilibration time, for a single injection was 3.5 minutes and the flow rate was 0.8 mL/minute. Solvent B was increased from 5 to 95% in 1.0 minute, held at 95% for 1.0 minute, and then decreased to 5% in 0.1 minute.
# A single 12-point calibration curve was prepared by first serially diluting (3-fold) a 40-μg/mL stock solution of each of Compound 1, Compound 2, and Compound 3 in DMSO. Brain homogenate was prepared by adding 5.0 mL of water to conical 50 mL tubes containing brains. The contents of the tubes were homogenized using an Omni-Prep Multi Sample Homogenizer (Kennesaw, Ga.) at 22,000 RPM for 180 seconds. The homogenate (100 μL) was added to the extraction plate, and 2.5 μL each standard solution was added to the naïve brain homogenate. A stock solution of an internal standard (10.0 μL of 2.5 μg/mL in acetonitrile) subsequently was added to each standard and sample solution. Proteinaceous material was precipitated from 100 μL of […] with the addition of 237.5 μL of acetonitrile for a total volume of 350 μL. […]
# [4] = IV clearance, 1 mg/kg IV, mouse; type: in vivo; conditions: for in vivo/in vitro correction factor: microsomal CLh divided by IV CL; for clearance: plasma, 1 mg/kg IV
# Description: In Table 1, the predicted human IV clearance values were calculated from compound concentration-versus-time data in plasma collected from pre-clinical species (mouse, rat, dog and monkey) following 1 mg/kg intravenous (IV) doses. Concentrations of compound in plasma were measured by LC-MS (liquid chromatography-mass spectrometry). AUCinf values (Area under the plasma concentration-time curve for a dosing interval from time 0 extrapolated to infinity) for individual Cp/t curves (concentration of the drug in plasma at any time t) were determined using linear-trapezoidal integration and first order extrapolation from terminal points of the Cp/t curves, and clearance (CL) was calculated using Dose/AUCinf.
# T1 sequence (P04629 33-796): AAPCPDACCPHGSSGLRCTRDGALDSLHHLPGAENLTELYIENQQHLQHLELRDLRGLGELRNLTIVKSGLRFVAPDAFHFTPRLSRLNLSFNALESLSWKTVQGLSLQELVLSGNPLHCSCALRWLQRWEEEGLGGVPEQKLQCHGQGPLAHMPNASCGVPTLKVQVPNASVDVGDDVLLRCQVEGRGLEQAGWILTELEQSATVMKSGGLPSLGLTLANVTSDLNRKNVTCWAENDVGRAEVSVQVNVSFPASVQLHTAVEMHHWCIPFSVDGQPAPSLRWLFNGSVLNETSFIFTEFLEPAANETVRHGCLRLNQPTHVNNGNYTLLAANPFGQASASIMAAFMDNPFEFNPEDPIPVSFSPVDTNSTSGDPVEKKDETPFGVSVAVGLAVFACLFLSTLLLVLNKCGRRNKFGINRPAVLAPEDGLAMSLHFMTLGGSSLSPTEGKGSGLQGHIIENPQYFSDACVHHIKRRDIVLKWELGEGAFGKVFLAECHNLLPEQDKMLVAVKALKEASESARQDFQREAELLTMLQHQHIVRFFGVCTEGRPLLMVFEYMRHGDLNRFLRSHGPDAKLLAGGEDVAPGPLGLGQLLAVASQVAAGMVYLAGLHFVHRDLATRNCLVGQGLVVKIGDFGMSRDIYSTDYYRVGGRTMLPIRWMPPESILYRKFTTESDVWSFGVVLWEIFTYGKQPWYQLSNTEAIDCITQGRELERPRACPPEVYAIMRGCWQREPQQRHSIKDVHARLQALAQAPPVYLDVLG
# T2 sequence (Q12809 whole entry): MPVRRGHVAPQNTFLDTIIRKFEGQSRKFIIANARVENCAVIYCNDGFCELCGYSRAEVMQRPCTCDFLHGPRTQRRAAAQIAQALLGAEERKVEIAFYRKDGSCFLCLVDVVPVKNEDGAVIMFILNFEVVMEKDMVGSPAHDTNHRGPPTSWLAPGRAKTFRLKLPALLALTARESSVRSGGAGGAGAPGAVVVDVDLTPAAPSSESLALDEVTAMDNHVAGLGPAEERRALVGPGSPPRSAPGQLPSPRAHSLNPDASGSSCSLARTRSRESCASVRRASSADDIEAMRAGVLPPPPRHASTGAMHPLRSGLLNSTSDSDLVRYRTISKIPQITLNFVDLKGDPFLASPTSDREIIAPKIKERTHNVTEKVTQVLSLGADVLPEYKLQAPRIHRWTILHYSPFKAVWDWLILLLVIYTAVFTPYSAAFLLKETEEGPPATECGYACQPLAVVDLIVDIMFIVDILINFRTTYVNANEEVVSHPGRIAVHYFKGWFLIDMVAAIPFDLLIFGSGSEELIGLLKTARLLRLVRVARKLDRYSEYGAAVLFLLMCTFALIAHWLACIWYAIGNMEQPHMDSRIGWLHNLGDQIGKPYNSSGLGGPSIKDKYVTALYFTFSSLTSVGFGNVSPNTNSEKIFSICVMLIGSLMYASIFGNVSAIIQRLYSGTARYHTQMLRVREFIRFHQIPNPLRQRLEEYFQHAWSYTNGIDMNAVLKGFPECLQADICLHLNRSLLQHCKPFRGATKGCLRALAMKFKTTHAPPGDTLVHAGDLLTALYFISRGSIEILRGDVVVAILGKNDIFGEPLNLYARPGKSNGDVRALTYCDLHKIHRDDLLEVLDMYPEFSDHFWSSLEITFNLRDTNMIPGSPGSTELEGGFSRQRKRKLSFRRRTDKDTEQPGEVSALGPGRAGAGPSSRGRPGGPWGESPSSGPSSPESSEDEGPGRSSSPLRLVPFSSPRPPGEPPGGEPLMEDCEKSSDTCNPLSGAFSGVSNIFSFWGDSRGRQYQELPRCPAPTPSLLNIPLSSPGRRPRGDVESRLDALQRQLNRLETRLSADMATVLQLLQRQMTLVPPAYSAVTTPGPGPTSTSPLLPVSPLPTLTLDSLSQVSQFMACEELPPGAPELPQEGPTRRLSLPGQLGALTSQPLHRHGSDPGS
SMILES,IC50 [1] [nM],IC50 [2] [nM],Plasma:Brain ratio [3],Trough concentration [3] [µg/mL],AUC [3] [ng·h/mL],Cmax [3] [ng/mL],in vivo/in vitro correction factor [4],clearance [4] [mL/min/kg]
"COCCN1C[C@@H](NC(=O)Nc2c(C)c(-c3cnc(C)nc3)nn2-c2ccccc2)[C@H](c2cccc(F)c2)C1 [Compound 1, 1-((3S,4R)-4-(3-fluorophenyl)-1-(2-methoxyethyl)pyrrolidin-3-yl)-3-(4-methyl-3-(2-methylpyrimidin-5-yl)-1-phenyl-1H-pyrazol-5-yl)urea]",1.9,20000,21,0.00134,2570,1060,–,–
"COCCN1C[C@@H](NC(=O)Nc2c(C)c(-c3cnc(C)nc3)nn2-c2ccccc2)[C@H](c2ccc(F)c(F)c2)C1 [Compound 2, 1-((3S,4R)-4-(3,4-difluorophenyl)-1-(2-methoxyethyl)pyrrolidin-3-yl)-3-(4-methyl-3-(2-methylpyrimidin-5-yl)-1-phenyl-1H-pyrazol-5-yl)urea]",1.3,6900,11,0.000446,925,420,1.36,42
"COCCN1C[C@@H](NC(=O)Nc2c(C)c(-c3cnn(C)c3)nn2-c2ccccc2)[C@H](c2ccc(F)cc2)C1 [Compound 3, 1-(1′,4-dimethyl-1-phenyl-1H,1′H-[3,4′-bipyrazol]-5-yl)-3-((3S,4R)-4-(4-fluorophenyl)-1-(2-methoxyethyl)pyrrolidin-3-yl)urea]",6.1,–,–,0.00044,1060,498,0.85,71
